Test results reported in patent US8367887B2, “Normal-tension glaucoma model and method for evaluation of test substances by using same” (Shinshu University, priority 2007, dated 2013).
Where a name gives a salt, the structure may show the parent alone.

Experiments:
retinal ganglion cells [1] = experiment: Susceptibility of NMDA-induced neurotoxicity (intravitreal NMDA, count of live ganglion cells) in wild-type and NF-κBp50-deficient mice; assay type: in vivo, mouse; details: for cell death in GCL (ganglion cell layer): 2 months old, 10 nmol NMDA intravitreal, 24 hours, FIG. 5
Description: (§1) Intravitreal NMDA injection was performed. 2 μl of 5 mM solution of NMDA in buffered saline solution (BSS) was injected into the vitreous of the left eye of each mouse aged 2 months. The right eyes were injected with BSS alone. At 24 hours and 4 days after injection, the eyes were enucleated and fixed in 4% paraformaldehyde in PB, followed by dehydration and paraffin embedding. Tranverse sections were made through the optic disc and stained with hematoxylin and eosin (H&E). Cells of 0.35 mm length at 0.3 mm from the edge of the optic disc in the ganglion cell layer were counted except for cells infiltrating the ganglion cell layer. The average number of cells per field was analyzed, and statistical differences were analyzed by the Student's t test.
Since NMDA receptor-mediated excitotoxicity has been reported to contribute to glaucomatous neuropathy and the NMDA receptor-mediated […] leads apoptosis of the neurons, the effect of NF-κBp50 on NMDA-induced neurotoxicity was examined. NMDA has excitotoxicity at a high concentration of 100 nmol which promptly leads cell death. The results of histological examination of the retinas at 24 hours after intravitreal injection of 10 nmol NMDA, which is a relatively low concentration as for NMDA-induced neurotoxicity, are shown in FIG. 5.
The live cells were counted in length of 0.35 mm at 0.3 mm each from the edge of the optic disc. Bar graphs show the number of cells in GCL at time before and 24 hours after NMDA-treatment. The average number of cells per field was analyzed by the two-tailed t-test. Statistical differences were analyzed by the Student's t test. Data are mean±SEM (n=6 to 7 mice). *1p<0.01 versus wild-type mice. *2p<0.01 versus wild-type mice.
[…] of NMDA were directly administered into vitreous respectively, and then the number of live ganglion cells was counted. As a control, the number of live ganglion cells without administration of NMDA was also counted. […] On the other hand, in the case of wild-type mice and NF-κBp50-deficient mice with injection of […] NMDA, which is a relatively low concentration, while almost all of the ganglion cells in wild-type mice survived at 4 days after NMDA treatment, about 60% of the ganglion cells in NF-κBp50-deficient mice were dead within 24 hours by apoptosis and moreover almost all of them were dead within 96 hours.

retinal ganglion cells [2] = experiment: Screening of test substances: protection of retinal ganglion cells from NMDA-induced apoptosis in wild-type and NF-κBp50-deficient mice; assay type: in vivo, mouse; details: 5 mM NMDA into vitreous; for effect of protecting retinal ganglion cells from NMDA-induced apoptosis (conclusion in words): wild-type and NF-κBp50-deficient mice, 24 hours
Description: as §1
By intraperitoneal administration, phosphate buffered saline (PBS) as control substance was respectively administered to wild-type mice and NF-κBp50-deficient mice once daily for 7 days. 5 mM of NMDA was directly administered into vitreous of the mice, and then the number of retinal ganglion cells after 24 hours was counted.
By intraperitoneal administration, 10 mg/kg of memantine hydrochloride, which is used as a curative medicine for Alzheimer type dementia and is an antagonist of NMDA receptor as one of glutamic acid receptor, was respectively administered to wild-type mice and […] mice once daily for 7 days. 5 mM of NMDA was directly administered into vitreous of the mice, and then the number of retinal ganglion cells after 24 hours were counted.
100 mg/kg of lomerizine hydrochloride, which is used as a curative medicine for migraine and is a piperazine-type calcium inhibitor, was respectively administered orally via catheters to wild-type mice and NF-κBp50-deficient mice once daily for 7 days. 5 mM of NMDA was directly administered into vitreous thereof, and then the number of retinal ganglion cells after 24 hours was numerated.
By intraperitoneal administration, 10 mg/kg of MK-801, which is NMDA receptor antagonist and is (5S,10R)-[…]-5-methyl-10,11-dihydro-5H-dibenzo[a,d]-cyclo-hepten-5,10-imine hydrogen maleate, was respectively administered to wild-type mice and NF-κBp50-deficient mice once daily for 7 days. 5 mM of NMDA was directly administered into vitreous thereof, and then the number of retinal ganglion cells after 24 hours was counted.
A control group was kept alike with administration for 2 weeks instead of administration of PBS for 7 days under above-mentioned control group. On the other hand, 3 mg/kg of […] was respectively administered to wild-type mice and NF-κBp50-deficient mice once daily for 2 weeks by intraperitoneal administration. 5 mM of NMDA was directly administered into vitreous thereof, and then the number of retinal ganglion cells after 24 hours was counted.

[3] = wild-type mice and NF-κBp50-deficient mice, injection of 50 mM NMDA into vitreous, FIG. 6

CN[C@H](CC(=O)O)C(=O)O [NMDA, N-methyl D aspartate]
cell death in GCL (ganglion cell layer) (retinal ganglion cells [1]; NF-κBp50-deficient mice): markedly induced cell death in GCL
ganglion cells dead within 96 hours (retinal ganglion cells [1]; NF-κBp50-deficient mice, injection of 5 nM NMDA into vitreous, FIG. 6): almost all
ganglion cells dead within 24 hours by apoptosis (retinal ganglion cells [1]; NF-κBp50-deficient mice, injection of 5 mM NMDA into vitreous, FIG. 6): about 60%
ganglion cells dead by apoptosis within 24 hours after NMDA treatment (retinal ganglion cells [1]; [3]): about half
ganglion cells dead by apoptosis within 96 hours (4 days) (retinal ganglion cells [1]; [3]): almost all
cell death in GCL (ganglion cell layer) (retinal ganglion cells [1]; wild-type mice): no significance was observed
ganglion cells survived at 4 days after NMDA treatment (retinal ganglion cells [1]; wild-type mice, injection of 5 mM NMDA into vitreous, FIG. 6): almost all

C=CC[C@@H]1/C=C(\C)C[C@H](C)C[C@H](OC)[C@H]2O[C@@](O)(C(=O)C(=O)N3CCCC[C@H]3C(=O)O[C@H](/C(C)=C/[C@@H]3CC[C@@H](O)[C@H](OC)C3)[C@H](C)[C@@H](O)CC1=O)[C@H](C)C[C@@H]2OC [KF506]
retinal ganglion cells dead by apoptosis within 24 hours after administration of NMDA (retinal ganglion cells [2]; NF-κBp50-deficient mice, 3 mg/kg intraperitoneal once daily for 2 weeks, FIG. 7f): no more than 34%
retinal ganglion cells dead by apoptosis within 24 hours after administration of NMDA (retinal ganglion cells [2]; wild-type mice, 3 mg/kg intraperitoneal once daily for 2 weeks, FIG. 7f): about 5%

C[C@]12N[C@H](Cc3ccccc31)c1ccccc12 [MK-801, (5S,10R)-(−)-5-methyl-10,11-dihydro-5H-dibenzo[a,d]-cyclo-hepten-5,10-imine hydrogen maleate]
retinal ganglion cells dead by apoptosis within 24 hours after administration of NMDA (retinal ganglion cells [2]; NF-κBp50-deficient mice, 10 mg/kg intraperitoneal once daily for 7 days, FIG. 7d): no more than 9%
effect of protecting retinal ganglion cells from NMDA-induced apoptosis (conclusion in words) (retinal ganglion cells [2]): had pharmacological effects of protecting retinal ganglion cells from NMDA-induced apoptosis
retinal ganglion cells dead by apoptosis within 24 hours after administration of NMDA (retinal ganglion cells [2]; wild-type mice, 10 mg/kg intraperitoneal once daily for 7 days, FIG. 7d): about 2%

CC12CC3CC(C)(C1)CC(N)(C3)C2 [memantine hydrochloride]
retinal ganglion cells dead by apoptosis within 24 hours after administration of NMDA (retinal ganglion cells [2]; NF-κBp50-deficient mice, 10 mg/kg intraperitoneal once daily for 7 days, FIG. 7b): about 15%
effect of protecting retinal ganglion cells from NMDA-induced apoptosis (conclusion in words) (retinal ganglion cells [2]): had pharmacological effects of protecting retinal ganglion cells from NMDA-induced apoptosis
retinal ganglion cells dead by apoptosis within 24 hours after administration of NMDA (retinal ganglion cells [2]; wild-type mice, 10 mg/kg intraperitoneal once daily for 7 days, FIG. 7b): about 3%

COc1ccc(CN2CCN(C(c3ccc(F)cc3)c3ccc(F)cc3)CC2)c(OC)c1OC [lomerizine hydrochloride]
retinal ganglion cells dead by apoptosis within 24 hours after administration of NMDA (retinal ganglion cells [2]; NF-κBp50-deficient mice, 100 mg/kg orally via catheters once daily for 7 days, FIG. 7c): no more than 28%
retinal ganglion cells dead by apoptosis within 24 hours after administration of NMDA (retinal ganglion cells [2]; wild-type mice, 100 mg/kg orally via catheters once daily for 7 days, FIG. 7c): about 2%
